According to patent US20040138258A1, “Inhibitors of 11beta-hydroxysteroid dehydrogenase and uses therefor” (priority 2002, published 2004):
pKi: −log10 of the molar value.

Molecular target: T1, rat liver 11β HSD (Rattus norvegicus, UniProt P16232)
T1 construct: for the 11β HSDs isolated from rat liver; from tissue; host or cells: rat liver
Assay: rat liver 11β HSD oxidative activity, corticosterone utilization (Lineweaver-Burk kinetics)
Assay type: biochemical
Settings: for inhibition of the enzyme: purified rat liver 11β HSD, 1,2,6,7-3H-corticosterone; for pKi: purified rat liver 11β HSD, oxidative activity, NADP+, 1,2,6,7-3H-corticosterone, with regard to the glucocorticoid substrate, read-out: Kis; for mode of inhibition: with regard to the glucocorticoid substrate (corticosterone), Lineweaver-Burk plot, rat liver 11β HSD oxidative activity
Experimental: Computational analyses were performed using the latest version of MacSpartan Plus and MSI InsightII. Experimental analysis employed the rat enzyme as described (Monder et al., BBA […] (1991) and references therein). Kinetic data were analyzed in Excel and plotted in CricketGraph.
The structural similarity between GCs like cortisol and the monoterpenes with the conformation of neomenthol (FIG. 1) was confirmed by the computational analysis of their steric and electronic similarities, as summarized in FIGS. 2 and 3. Only neomenthol precisely mimicked the region of GCs around C11 that contains the oxygen atom subjected to the redox reactions mediated by the 11β HSDs. Consequently, only neomenthol should bind to such an enzyme like its physiological substrate, competing with said substrate for the active site of said enzyme. This computation-based prediction was confirmed experimentally, as shown in FIGS. 4 and 5 for the 11β HSDs isolated from rat liver. The purified rat liver 11β HSD, when used in vitro, utilizes NADP+ and oxidizes cortisol and corticosterone in an ordered sequential bireactant mechanism (Monder et al., Biochim. Biophys. Acta 1115:23-29 (1991) and references therein). […] More importantly, the results identified the conformation of neomenthol as a lead for the rational optimization of 11β HSD inhibitors, applicable to both the in vivo oxidizing activity of 11β HSD2 and the in vivo reducing activity of 11β HSD1, as shown in FIG. 6. Using the same computational algorithms that correctly predicted the competitive mode of inhibitory activity for neomenthol, and the lack thereof for isomenthol, molecules were assembled in silico and evaluated for their computed physicochemical characteristics relevant for the desired inhibition of 11β HSD activity. Originating from the lead compounds (FIG. 6), the computational analysis converged on several optimized structures that contained combinations of physicochemical and steric elements prerequisite for 11β HSD inhibition. These structures are identified in FIGS. 7-10. FIG. 7 details for neomenthol the findings obtained with this approach. FIG. 8 details the findings for a representative compound in which, among other modifications, a structure equivalent to the B ring of cortisol has been deleted. FIG. 9 details the findings for a representative compound in which, among other modifications, a ring has been added to the structure equivalent to the D ring of cortisol. FIG. 10 details the findings for a representative compound in which, among other modifications, a structure equivalent to the D ring of cortisol has been deleted. As originally proposed for neomenthol (FIG. 11), these structures are sufficiently isosteric and isoelectronic with cortisol to displace it from its plasma binding proteins, in this way increasing the bioavailable, free cortisol in a living system, e.g. after topical administration to skin only in skin blood vessels.

T1 sequence (P16232 whole entry): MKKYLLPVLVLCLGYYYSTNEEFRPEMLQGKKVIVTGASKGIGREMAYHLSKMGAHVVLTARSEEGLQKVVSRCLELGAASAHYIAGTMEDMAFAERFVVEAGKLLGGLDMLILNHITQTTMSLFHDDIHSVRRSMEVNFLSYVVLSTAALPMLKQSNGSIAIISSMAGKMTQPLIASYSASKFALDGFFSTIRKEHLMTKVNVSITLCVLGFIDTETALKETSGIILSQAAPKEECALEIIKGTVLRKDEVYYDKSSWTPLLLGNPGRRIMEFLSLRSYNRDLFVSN

| Structure (SMILES) | inhibition of the enzyme | pKi | mode of inhibition |
| --- | --- | --- | --- |
| CC(C)[C@@H]1CC[C@@H](C)C[C@@H]1O [neomenthol, (1S, 2S, 5R)-neomenthol] | inhibited the enzyme | 4.46 | competitive |
| CC(C)[C@H]1CC[C@@H](C)C[C@@H]1O [isomenthol, (1S, 2R, 5R)-isomenthol] | inhibited the enzyme | 4.15 | non-competitive |
